Laboratory results: ChEMBL document CHEMBL3885861, “Open TG-GATES”

Organism: Rattus norvegicus
Test: Open TG-GATES - Regimen: Single
Format: toxicity, organism-based, Sprague-Dawley
Set-up: regimen Single, gender Male, age 6 weeks
Conditions: in vivo, po, 20 mg/kg, route gavage, dose level Low; for APTT / Bas / Eos / Fbg / Hb / Ht / Lym / MCH / MCHC / MCV / Mono / Neu / PT / Plat / RBC / Ret / WBC: tissue Blood; for KIDNEY_TOTAL: tissue Kidney; for LIVER: tissue Liver; for A/G / ALP / ALT / AST / BUN / CRE / Ca / Cl / DBIL / GLC / IP / K / LDH / Na / PL / RALB / TBIL / TC / TG / TP / gamma-GTP: tissue Plasma

## CN(CCOc1ccc(CC2SC(=O)NC2=O)cc1)c1ccccn1.O=C(O)/C=C\C(=O)O (centres undefined) [ROSIGLITAZONE MALEATE]
3 h
  TERMINAL_BW: 211.2 g
  APTT: 16 s
  Bas: 0%
  Eos: 0.6%
  Fbg: 208.6 mg/dL
  Hb: 13.1 g/dL
  Ht: 39.8%
  Lym: 75.6%
  MCH: 21.5 pg
  MCHC: 32.9%
  MCV: 65.3 fL
  Mono: 9.2%
  Neu: 14.2%
  PT: 12.2 s
  Plat: 111.6 x10_4/uL
  RBC: 609 x10_4/ul
  Ret: 8.8%
  WBC: 102 x10_2/uL
  KIDNEY_TOTAL: 0.8 g
  LIVER: 10.3 g
  A/G: 2.1
  ALP: 1342 IU/L
  ALT: 38.8 IU/L
  AST: 70.4 IU/L
  BUN: 13.2 mg/dL
  CRE: 0.4 mg/dL
  Ca: 11.2 mg/dL
  Cl: 103.2 meq/L
  DBIL: 0.016 mg/dL
  GLC: 179.2 mg/dL
  IP: 8.4 mg/dL
  K: 4.3 meq/L
  LDH: 104 IU/L
  Na: 139.6 meq/L
  PL: 151.2 mg/dL
  RALB: 3.6 g/dL
  TBIL: 0.052 mg/dL
  TC: 84.4 mg/dL
  TG: 113.4 mg/dL
  TP: 5.4 g/dL
  gamma-GTP: 0.6 IU/L
6 h
  TERMINAL_BW: 199.3 g
  APTT: 16.4 s
  Bas: 0%
  Eos: 0.8%
  Fbg: 208.8 mg/dL
  Hb: 13.1 g/dL
  Ht: 39.8%
  Lym: 78%
  MCH: 21.3 pg
  MCHC: 32.8%
  MCV: 64.9 fL
  Mono: 6.4%
  Neu: 15.2%
  PT: 12.1 s
  Plat: 118.2 x10_4/uL
  RBC: 614.6 x10_4/ul
  Ret: 8.5%
  WBC: 114.2 x10_2/uL
  KIDNEY_TOTAL: 0.7 g
  LIVER: 8.7 g
  A/G: 2.5
  ALP: 1335.2 IU/L
  ALT: 37 IU/L
  AST: 73 IU/L
  BUN: 9.2 mg/dL
  CRE: 0.4 mg/dL
  Ca: 11.1 mg/dL
  Cl: 103.6 meq/L
  DBIL: 0.014 mg/dL
  GLC: 184.6 mg/dL
  IP: 9.6 mg/dL
  K: 4.3 meq/L
  LDH: 72.8 IU/L
  Na: 138.2 meq/L
  PL: 135.2 mg/dL
  RALB: 3.7 g/dL
  TBIL: 0.048 mg/dL
  TC: 82.4 mg/dL
  TG: 73.8 mg/dL
  TP: 5.2 g/dL
  gamma-GTP: 0.8 IU/L
9 h
  TERMINAL_BW: 198.4 g
  APTT: 16.5 s
  Bas: 0%
  Eos: 1%
  Fbg: 219 mg/dL
  Hb: 12.7 g/dL
  Ht: 38.2%
  Lym: 73%
  MCH: 21.7 pg
  MCHC: 33.3%
  MCV: 65.1 fL
  Mono: 6%
  Neu: 20.4%
  PT: 12.2 s
  Plat: 118 x10_4/uL
  RBC: 586.6 x10_4/ul
  Ret: 9%
  WBC: 90.8 x10_2/uL
  KIDNEY_TOTAL: 0.7 g
  LIVER: 8.5 g
  A/G: 2.4
  ALP: 1181.6 IU/L
  ALT: 35.2 IU/L
  AST: 64.4 IU/L
  BUN: 12.2 mg/dL
  CRE: 0.3 mg/dL
  Ca: 11 mg/dL
  Cl: 104.6 meq/L
  DBIL: 0.01 mg/dL
  GLC: 192.4 mg/dL
  IP: 10.3 mg/dL
  K: 4.2 meq/L
  LDH: 80.6 IU/L
  Na: 140 meq/L
  PL: 130.6 mg/dL
  RALB: 3.8 g/dL
  TBIL: 0.044 mg/dL
  TC: 78.4 mg/dL
  TG: 57.6 mg/dL
  TP: 5.3 g/dL
  gamma-GTP: 0.8 IU/L
24 h
  TERMINAL_BW: 217.5 g
  APTT: 15.7 s
  Bas: 0%
  Eos: 1%
  Fbg: 232 mg/dL
  Hb: 12.8 g/dL
  Ht: 39%
  Lym: 74.2%
  MCH: 21.3 pg
  MCHC: 32.9%
  MCV: 64.8 fL
  Mono: 8%
  Neu: 17%
  PT: 11.4 s
  Plat: 119.2 x10_4/uL
  RBC: 602.6 x10_4/ul
  Ret: 7.1%
  WBC: 95 x10_2/uL
  KIDNEY_TOTAL: 0.7 g
  LIVER: 11.3 g
  A/G: 2.4
  ALP: 1603.4 IU/L
  ALT: 34.2 IU/L
  AST: 66.2 IU/L
  BUN: 16 mg/dL
  CRE: 0.4 mg/dL
  Ca: 11.3 mg/dL
  Cl: 104.2 meq/L
  DBIL: 0.014 mg/dL
  GLC: 190.2 mg/dL
  IP: 7.7 mg/dL
  K: 4.3 meq/L
  LDH: 102 IU/L
  Na: 141 meq/L
  PL: 153.4 mg/dL
  RALB: 3.9 g/dL
  TBIL: 0.034 mg/dL
  TC: 87.4 mg/dL
  TG: 128.2 mg/dL
  TP: 5.5 g/dL
  gamma-GTP: 1 IU/L
